Data as given in patent publication US20230085307A1, “PYRIDAZINONE COMPOUND AND HERBICIDE” (NISSAN CHEMICAL CORPORATION, priority 2019, published 2023).

Columns and labels:
late watergrass = assay: Test Example 1: herbicidal activity, application before weed generation under submerged conditions (Table 16, symbol A); assay type: in vivo, late watergrass (Echinochloa oryzicola); settings: amount of applied herbicide 320 g/ha
Procedure, shortened: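 Submerged Wagner pots (alluvial soil, 4 cm water) sown with weed seeds and planted with 2.5-leaf rice seedlings; emulsifiable concentrate diluted in water applied to water surface on sowing day. Held in greenhouse at 25-30 °C; injury scored 0-5 by herbicidal rate after three weeks.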

oval-leafed pondweed = assay: Test Example 2: herbicidal activity, application during weed generation under submerged conditions (Table 17, symbol C); assay type: in vivo, oval-leafed pondweed (Monochoria vaginalis); settings: for herbicidal effect rating, C: oval-leafed pondweed: AAH 320 g/ha, application during weed generation, submerged conditions
Procedure, shortened: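 Wagner pot, alluvial soil, 4 cm flood; mixed sowing of all species; greenhouse 25° C.–30° C. Emulsifiable formulation, water-diluted to predetermined dose, applied to paddy water at 1–2 leaf stage. Effect rated at 3 wk using the earlier test's scoring criteria.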

Chinese sprangletop = assay: Test Example 3: herbicidal effect by foliage application, Wagner pot (Table 18, symbol D); assay type: in vivo, chinese sprangletop (Leptochloa chinensis); settings: for herbicidal effect on Chinese sprangletop (D): 320 g/ha
Procedure, shortened: (§1)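 Plants were sown in alluvial soil held under 0.1–0.5 cm standing water and grown 14 days in a greenhouse at 25–30 °C. An emulsifiable formulation, water-diluted to the set dose, was then sprayed onto the foliage, and effects were scored three weeks later using previously defined criteria.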

rice flat sedge = assay: Test Example 3: herbicidal effect by foliage application, Wagner pot (Table 18, symbol E); assay type: in vivo, rice flat sedge (Cyperus iria); settings: for herbicidal effect on rice flat sedge (E): 320 g/ha
Procedure, shortened: as §1

green foxtail = assay: Test Example 4: herbicidal effect by soil treatment (Table 19, symbol G); assay type: in vivo, green foxtail (Setaria viridis); settings: amount of applied herbicide 320 g/ha
Procedure, shortened: (§2)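 Emulsion of test compound, water-diluted to predetermined amount, sprayed on soil after sowing (seed depth ~1.5 cm, sterilized diluvial soil). Greenhouse, 25–30° C. Effect graded at three weeks post-spray.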

wild oat = assay: Test Example 4: herbicidal effect by soil treatment (Table 19, symbol I); assay type: in vivo, wild oat (Avena fatua); settings: amount of applied herbicide 320 g/ha
Procedure, shortened: as §2

Italian ryegrass [1] = assay: Test Example 4: herbicidal effect by soil treatment (Table 19, symbol K); assay type: in vivo, Italian ryegrass (Lolium multiflorum); settings: amount of applied herbicide 320 g/ha
Procedure, shortened: as §2

windgrass [2] = assay: Test Example 4: herbicidal effect by soil treatment (Table 19, symbol L); assay type: in vivo, windgrass (Apera spica-venti); settings: amount of applied herbicide 320 g/ha
Procedure, shortened: as §2

velvetleaf [3] = assay: Test Example 4: herbicidal effect by soil treatment (Table 19, symbol M); assay type: in vivo, velvetleaf (Abutilon theophrasti); settings: amount of applied herbicide 320 g/ha
Procedure, shortened: as §2

lambsquarters = assay: Test Example 4: herbicidal effect by soil treatment (Table 19, symbol O); assay type: in vivo, lambsquarters (Chenopodium album); settings: amount of applied herbicide 320 g/ha
Procedure, shortened: as §2

barnyard grass = assay: Test Example 5: herbicidal effect by foliage application, plastic box (Table 20, symbol H); assay type: in vivo, barnyard grass (Echinochloa crus-galli); settings: 320 g/ha
Procedure, shortened: (§3)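 Post-emergence foliar test in sterilized diluvial soil. Compound applied as water-diluted emulsion at a predetermined rate to 14-day-old plants; evaluation at three weeks.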

Italian ryegrass [4] = assay: Test Example 5: herbicidal effect by foliage application, plastic box (Table 20, symbol K); assay type: in vivo, Italian ryegrass (Lolium multiflorum); settings: 320 g/ha
Procedure, shortened: as §3

windgrass [5] = assay: Test Example 5: herbicidal effect by foliage application, plastic box (Table 20, symbol L); assay type: in vivo, windgrass (Apera spica-venti); settings: 320 g/ha
Procedure, shortened: as §3

velvetleaf [6] = assay: Test Example 5: herbicidal effect by foliage application, plastic box (Table 20, symbol M); assay type: in vivo, velvetleaf (Abutilon theophrasti); settings: 320 g/ha
Procedure, shortened: as §3

chickweed = assay: Test Example 5: herbicidal effect by foliage application, plastic box (Table 20, symbol P); assay type: in vivo, common chickweed (Stellaria media); settings: 320 g/ha; for P: chickweed, herbicidal effect grade: three weeks after application
Procedure, shortened: as §3

persian speedwell = assay: Test Example 4: herbicidal effect by soil treatment (Table 19, symbol R); assay type: in vivo, Persian speedwell (Veronica persica); settings: amount of applied herbicide 320 g/ha
Procedure, shortened: as §2

[7] = foliage application, three weeks after application
[8] = amount of applied herbicide 320 g/ha
[9] = foliage application, evaluated 3 weeks after application
[10] = foliage application after 14-day growth, evaluated three weeks after application

| Structure (SMILES) | Herbicidal effect, A: late watergrass (late watergrass) | herbicidal effect rating, C: oval-leafed pondweed (oval-leafed pondweed) | herbicidal effect on Chinese sprangletop (D) (Chinese sprangletop) | herbicidal effect on rice flat sedge (E) (rice flat sedge) | G: green foxtail, herbicidal effect grade (green foxtail) | I: wild oat, herbicidal effect grade (wild oat) | K: Italian ryegrass, herbicidal effect grade (Italian ryegrass [1]) | L: windgrass, herbicidal effect grade (windgrass [2]) | M: velvetleaf, herbicidal effect grade (velvetleaf [3]) | O: lambsquarters, herbicidal effect grade (lambsquarters) | H: barnyard grass, herbicidal effect grade (barnyard grass; [7]) | K: Italian ryegrass, herbicidal effect grade (Italian ryegrass [4]; [7]) | L: windgrass, herbicidal effect grade (windgrass [5]; [7]) | M: velvetleaf, herbicidal effect grade (velvetleaf [6]; [7]) | P: chickweed, herbicidal effect grade (chickweed; foliage application) | also measured |
| --- | --- | --- | --- | --- | --- | --- | --- | --- | --- | --- | --- | --- | --- | --- | --- | --- |
| COc1ccccc1-c1sc2cc(OCC3CC3(F)F)ccc2c1-c1c(O)c(C)nn(C)c1=O (centres unmarked) [3-131] | 5 (Herbicidal rate of 90% or more (almost completely withered)) | 5 (Herbicidal rate of 90% or more (almost completely withered)) | 3 (Herbicidal rate of 40% or more and less than 70%) | 5 (Herbicidal rate of 90% or more (almost completely withered)) | 4 (Herbicidal rate of 70% or more and less than 90%) | 3 (Herbicidal rate of 40% or more and less than 70%) | 5 (Herbicidal rate of 90% or more (almost completely withered)) | 3 (Herbicidal rate of 40% or more and less than 70%) | 3 (Herbicidal rate of 40% or more and less than 70%) | 5 (Herbicidal rate of 90% or more (almost completely withered)) | 5 (Herbicidal rate of 90% or more (almost completely withered)) | 5 (Herbicidal rate of 90% or more (almost completely withered)) | 5 (Herbicidal rate of 90% or more (almost completely withered)) | 4 (Herbicidal rate of 70% or more and less than 90%) | 5 (Herbicidal rate of 90% or more (almost completely withered)) | – |
| COCCOc1ccc(-c2oc3ccc(C)cc3c2-c2c(O)c(C)nn(C)c2=O)cc1 [9-063] | 5 (Herbicidal rate of 90% or more (almost completely withered)) | – | – | – | 5 (Herbicidal rate of 90% or more (almost completely withered)) | 0 (Herbicidal rate of 5% or less (almost no effect)) | 5 (Herbicidal rate of 90% or more (almost completely withered)) | – | 5 (Herbicidal rate of 90% or more (almost completely withered)) | 5 (Herbicidal rate of 90% or more (almost completely withered)) | – | – | – | – | – | herbicidal effect grade, C: oval-leafed pondweed (oval-leafed pondweed; application during weed generation under submerged conditions, amount of applied herbicide 320 g/ha): 4 (Herbicidal rate of 70% or more and less than 90%); Herbicidal effect on D (Chinese sprangletop), foliage application (Chinese sprangletop; [8]): 3 (Herbicidal rate of 40% or more and less than 70%); Herbicidal effect on E (rice flat sedge), foliage application (rice flat sedge; [8]): 4 (Herbicidal rate of 70% or more and less than 90%); R: persian speedwell, herbicidal effect grade (persian speedwell): 5 (Herbicidal rate of 90% or more (almost completely withered)); H (barnyard grass) herbicidal effect grade (barnyard grass; [9]): 5 (Herbicidal rate of 90% or more (almost completely withered)); K (Italian ryegrass) herbicidal effect grade (Italian ryegrass [4]; [9]): 5 (Herbicidal rate of 90% or more (almost completely withered)); L (windgrass) herbicidal effect grade (windgrass [5]; [9]): 4 (Herbicidal rate of 70% or more and less than 90%); M (velvetleaf) herbicidal effect grade (velvetleaf [6]; [9]): 5 (Herbicidal rate of 90% or more (almost completely withered)); P (chickweed) herbicidal effect grade (chickweed; [9]): 5 (Herbicidal rate of 90% or more (almost completely withered)) |
| CCCC(=O)Oc1c(C)nn(C)c(=O)c1-c1c(-c2ccc(C#N)cc2)sc2c(F)cccc12 [4-053] | 5 (Herbicidal rate of 90% or more (almost completely withered)) | – | 3 (Herbicidal rate of 40% or more and less than 70%) | 4 (Herbicidal rate of 70% or more and less than 90%) | – | – | – | – | – | – | – | – | – | – | – | Herbicidal effect by soil treatment, G: green foxtail (green foxtail): 2 (Herbicidal rate of 20% or more and less than 40%); Herbicidal effect by soil treatment, I: wild oat (wild oat): 0 (Herbicidal rate of 5% or less (almost no effect)); Herbicidal effect by soil treatment, K: Italian ryegrass (Italian ryegrass [1]): 4 (Herbicidal rate of 70% or more and less than 90%); Herbicidal effect by soil treatment, L: windgrass (windgrass [2]): 0 (Herbicidal rate of 5% or less (almost no effect)); Herbicidal effect by soil treatment, M: velvetleaf (velvetleaf [3]): 2 (Herbicidal rate of 20% or more and less than 40%); Herbicidal effect by soil treatment, O: lambsquarters (lambsquarters): 3 (Herbicidal rate of 40% or more and less than 70%); Herbicidal effect by soil treatment, R: persian speedwell (persian speedwell): 5 (Herbicidal rate of 90% or more (almost completely withered)); herbicidal effect on H: barnyard grass (evaluation grade 0-5) (barnyard grass; [10]): 2 (Herbicidal rate of 20% or more and less than 40%); herbicidal effect on K: Italian ryegrass (evaluation grade 0-5) (Italian ryegrass [4]; [10]): 4 (Herbicidal rate of 70% or more and less than 90%); herbicidal effect on L: windgrass (evaluation grade 0-5) (windgrass [5]; [10]): 4 (Herbicidal rate of 70% or more and less than 90%); herbicidal effect on M: velvetleaf (evaluation grade 0-5) (velvetleaf [6]; [10]): 5 (Herbicidal rate of 90% or more (almost completely withered)); herbicidal effect on P: chickweed (evaluation grade 0-5) (chickweed; [10]): 5 (Herbicidal rate of 90% or more (almost completely withered)) |
| CCCC(=O)Oc1c(C)nn(C)c(=O)c1-c1c(-c2ccc(OC(C)C)cc2)sc2cc(F)ccc12 [3-020] | 3 (Herbicidal rate of 40% or more and less than 70%) | 2 (Herbicidal rate of 20% or more and less than 40%) | – | – | – | – | – | – | – | – | 2 (Herbicidal rate of 20% or more and less than 40%) | 2 (Herbicidal rate of 20% or more and less than 40%) | 0 (Herbicidal rate of 5% or less (almost no effect)) | 3 (Herbicidal rate of 40% or more and less than 70%) | 5 (Herbicidal rate of 90% or more (almost completely withered)) | herbicidal effect on D: Chinese sprangletop (Chinese sprangletop; [8]): 3 (Herbicidal rate of 40% or more and less than 70%); herbicidal effect on E: rice flat sedge (rice flat sedge; [8]): 5 (Herbicidal rate of 90% or more (almost completely withered)); herbicidal effect, G: green foxtail (green foxtail): 0 (Herbicidal rate of 5% or less (almost no effect)); herbicidal effect, I: wild oat (wild oat): 0 (Herbicidal rate of 5% or less (almost no effect)); herbicidal effect, K: Italian ryegrass (Italian ryegrass [1]): 0 (Herbicidal rate of 5% or less (almost no effect)); herbicidal effect, L: windgrass (windgrass [2]): 0 (Herbicidal rate of 5% or less (almost no effect)); herbicidal effect, M: velvetleaf (velvetleaf [3]): 0 (Herbicidal rate of 5% or less (almost no effect)); herbicidal effect, O: lambsquarters (lambsquarters): 0 (Herbicidal rate of 5% or less (almost no effect)) |
| COc1cc(F)ccc1-c1sc2cc(C)c(C)cc2c1-c1c(O)c(C)nn(C)c1=O [5-101] | 3 (Herbicidal rate of 40% or more and less than 70%) | 2 (Herbicidal rate of 20% or more and less than 40%) | 2 (Herbicidal rate of 20% or more and less than 40%) | 3 (Herbicidal rate of 40% or more and less than 70%) | 0 (Herbicidal rate of 5% or less (almost no effect)) | 0 (Herbicidal rate of 5% or less (almost no effect)) | 4 (Herbicidal rate of 70% or more and less than 90%) | 0 (Herbicidal rate of 5% or less (almost no effect)) | 0 (Herbicidal rate of 5% or less (almost no effect)) | 2 (Herbicidal rate of 20% or more and less than 40%) | – | – | – | – | – | herbicidal effect on barnyard grass (H) (barnyard grass; [7]): 3 (Herbicidal rate of 40% or more and less than 70%); herbicidal effect on Italian ryegrass (K) (Italian ryegrass [4]; [7]): 4 (Herbicidal rate of 70% or more and less than 90%); herbicidal effect on windgrass (L) (windgrass [5]; [7]): 3 (Herbicidal rate of 40% or more and less than 70%); herbicidal effect on velvetleaf (M) (velvetleaf [6]; [7]): 4 (Herbicidal rate of 70% or more and less than 90%) |
